# Measured values as given in patent publication US9617244B2, “Antibacterial quinoline derivatives” (JANSSEN PHARMACEUTICA NV, priority 2012, dated 2017).
# Tested on: Staphylococcus aureus (ATCC29213)
# Assay: In-vitro anti-bacterial activity, microtitre plate assay, IC90 determination (non-mycobacterial strains)
# Format: cell-based
# Details: 90% inhibitory concentration for bacterial growth, 24 hours, resazurin fluorescence
# How it was run: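 Growth inhibition measured fluorometrically with resazurin (530/590 nm) after overnight 37 °C incubation under normal atmosphere. Bacteria added at roughly 100 TCID50 per well in Mueller-Hinton broth to five-fold compound dilution series; IC90 reported in μg/ml.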
row,Compound,IC90 STA B29213
1,COc1nc2ccc(Cl)cc2cc1C(c1ccc(Cl)cc1)C1(O)CCNCC1F (stereo not drawn) [Compound 450],8.69 µg/mL
2,COc1nc2ccc(Cl)cc2cc1C(c1ccc(Cl)cc1)C1(O)CCNCC1F (stereo not drawn) [Compound 451],5.48 µg/mL
3,COc1nc2ccc(Cl)cc2cc1C(c1ccc(Cl)cc1)C1(O)CCNCC1F (stereo not drawn) [Compound 452],9.75 µg/mL
4,COc1nc2ccc(Cl)cc2cc1C(c1ccc(Cl)cc1)C1(O)CCNCC1F (stereo not drawn) [Compound 455],7.74 µg/mL
5,COc1nc2ccc(Cl)cc2cc1C(c1ccc(Cl)cc1)C1(O)CCNCC1F (stereo not drawn) [Compound 456],10.94 µg/mL
6,COc1nc2ccc(S(C)(=O)=O)cc2cc1C(c1ccc(Cl)cc1)C1(O)CCNC(c2ccc3ccccc3c2)C1 (stereo not drawn) [Compound 459],13.14 µg/mL
7,COc1nc2ccc(S(C)(=O)=O)cc2cc1C(c1ccc(Cl)cc1)C1(O)CCNC(c2ccc3ccccc3c2)C1 (stereo not drawn) [Compound 460],3.70 µg/mL
8,COc1nc2ccc(S(C)(=O)=O)cc2cc1C(c1ccc(Cl)cc1)C1(O)CCNC(c2ccc3ccccc3c2)C1 (stereo not drawn) [Compound 462],1.86 µg/mL
9,COc1nc2ccc(S(C)(=O)=O)cc2cc1C(c1ccc(Cl)cc1)C1(O)CCNC(c2ccc3ccccc3c2)C1 (stereo not drawn) [Compound 465],5.87 µg/mL
10,COc1nc2ccc(S(C)(=O)=O)cc2cc1C(c1ccc(Cl)cc1)C1(O)CCNC(c2ccc3ccccc3c2)C1 (stereo not drawn) [Compound 466],3.70 µg/mL

# The remaining lines, values ahead:
row,IC90 STA B29213,Compound
1,10.94 µg/mL,COc1nc2ccc(Cl)cc2cc1C(c1ccc(Cl)cc1)C1(O)CCNCC1F (stereo not drawn) [Compound 454]
2,2.62 µg/mL,COc1nc2ccc(S(C)(=O)=O)cc2cc1C(c1ccc(Cl)cc1)C1(O)CCNC(c2ccc3ccccc3c2)C1 (stereo not drawn) [Compound 461]
3,14.75 µg/mL,COc1nc2ccc(S(C)(=O)=O)cc2cc1C(c1ccc(Cl)cc1)C1(O)CCNC(c2ccc3ccccc3c2)C1 (stereo not drawn) [Compound 463]
4,1.47 µg/mL,COc1nc2ccc(S(C)(=O)=O)cc2cc1C(c1ccc(Cl)cc1)C1(O)CCNC(c2ccc3ccccc3c2)C1 (stereo not drawn) [Compound 464]

# Same assay, conditions: Staphylococcus aureus, ATCC29213, 24 h, 90% inhibitory concentration for bacterial growth, resazurin fluorescence, read-out: IC90 STA B29213
row,Compound,IC90
1,C=CCC1CNCCC1(O)C(c1ccc(Cl)cc1)c1cc2cc(Br)ccc2nc1OC (stereo not drawn) [Compound 392],6.32 µg/mL
2,COc1nc2ccc(F)cc2cc1C(c1ccc(SC)cc1)C1(O)CCNC(c2ccc(F)cc2C)C1 (stereo not drawn) [Compound 406],3.29 µg/mL
3,COc1nc2ccc(Cl)cc2cc1C(c1ccc(Cl)cc1)C1(O)CCNC(CO)C1 (stereo not drawn) [Compound 435],5.63 µg/mL
4,COc1nc2ccc(Cl)cc2cc1C(c1ccc(Cl)cc1)C1(O)CCNCC1F (stereo not drawn) [Compound 453],5.48 µg/mL
5,COc1nc2ccc(Cl)cc2cc1C(c1ccc(Cl)cc1)C1(O)CCNC(Cc2cccnc2)C1 (stereo not drawn) [Compound 467],3.21 µg/mL

# Results, then the molecule that gave them:
row,IC90,Compound
1,> 12.3 µg/mL,COc1nc2ccc(S(C)(=O)=O)cc2cc1C(c1ccc(Cl)cc1)C1(O)CCNCC1(C)C (stereo not drawn) [Compound 397]
2,> 13.9 µg/mL,COc1nc2ccc(F)cc2cc1C(c1ccc(S(C)(=O)=O)cc1)C1(O)CCNC(c2ccc(F)cc2C)C1 (stereo not drawn) [Compound 417]
3,> 11.1 µg/mL,COc1nc2ccc(Br)cc2cc1C(c1ccccc1)C1(O)CCNCC1C (stereo not drawn) [Compound 425]

# Tested on: Mycobacterium smegmatis (ATCC607)
# Assay: In-vitro anti-bacterial activity against strain M. Smegmatis ATCC607
# Format: cell-based
# Details: 90% inhibitory concentration for bacterial growth, 48 hours, Alamar Blue fluorescence
# How it was run: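 IC90 (μg/ml) derived from Alamar Blue fluorescence (530/590 nm) after 48 h growth at 37 °C under 5% CO2. About 250 CFU per well in Mueller-Hinton broth faced five-fold serial compound dilutions in BSA-containing wells.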
row,Compound,IC90 MSM 607
1,COc1nc2ccc(F)cc2cc1C(c1ccc(SC)cc1)C1(O)CCNC(c2ccc(F)cc2C)C1 (stereo not drawn) [Compound 406],2.61 µg/mL
2,COc1nc2ccc(Cl)cc2cc1C(c1ccc(Cl)cc1)C1(O)CCNCC1F (stereo not drawn) [Compound 450],4.35 µg/mL
3,COc1nc2ccc(Cl)cc2cc1C(c1ccc(Cl)cc1)C1(O)CCNCC1F (stereo not drawn) [Compound 451],2.18 µg/mL
4,COc1nc2ccc(Cl)cc2cc1C(c1ccc(Cl)cc1)C1(O)CCNCC1F (stereo not drawn) [Compound 452],4.35 µg/mL
5,COc1nc2ccc(Cl)cc2cc1C(c1ccc(Cl)cc1)C1(O)CCNCC1F (stereo not drawn) [Compound 453],2.75 µg/mL
6,COc1nc2ccc(Cl)cc2cc1C(c1ccc(Cl)cc1)C1(O)CCNCC1F (stereo not drawn) [Compound 455],5.48 µg/mL
7,COc1nc2ccc(Cl)cc2cc1C(c1ccc(Cl)cc1)C1(O)CCNCC1F (stereo not drawn) [Compound 456],10.94 µg/mL
8,COc1nc2ccc(S(C)(=O)=O)cc2cc1C(c1ccc(Cl)cc1)C1(O)CCNC(c2ccc3ccccc3c2)C1 (stereo not drawn) [Compound 459],3.70 µg/mL
9,COc1nc2ccc(S(C)(=O)=O)cc2cc1C(c1ccc(Cl)cc1)C1(O)CCNC(c2ccc3ccccc3c2)C1 (stereo not drawn) [Compound 460],1.86 µg/mL
10,COc1nc2ccc(S(C)(=O)=O)cc2cc1C(c1ccc(Cl)cc1)C1(O)CCNC(c2ccc3ccccc3c2)C1 (stereo not drawn) [Compound 462],0.93 µg/mL
11,COc1nc2ccc(S(C)(=O)=O)cc2cc1C(c1ccc(Cl)cc1)C1(O)CCNC(c2ccc3ccccc3c2)C1 (stereo not drawn) [Compound 465],2.62 µg/mL
12,COc1nc2ccc(S(C)(=O)=O)cc2cc1C(c1ccc(Cl)cc1)C1(O)CCNC(c2ccc3ccccc3c2)C1 (stereo not drawn) [Compound 466],1.47 µg/mL

# Second part, the molecule after the results:
row,IC90 MSM 607,Compound
1,4.35 µg/mL,COc1nc2ccc(Cl)cc2cc1C(c1ccc(Cl)cc1)C1(O)CCNCC1F (stereo not drawn) [Compound 454]
2,1.47 µg/mL,COc1nc2ccc(S(C)(=O)=O)cc2cc1C(c1ccc(Cl)cc1)C1(O)CCNC(c2ccc3ccccc3c2)C1 (stereo not drawn) [Compound 461]
3,2.34 µg/mL,COc1nc2ccc(S(C)(=O)=O)cc2cc1C(c1ccc(Cl)cc1)C1(O)CCNC(c2ccc3ccccc3c2)C1 (stereo not drawn) [Compound 463]
4,1.17 µg/mL,COc1nc2ccc(S(C)(=O)=O)cc2cc1C(c1ccc(Cl)cc1)C1(O)CCNC(c2ccc3ccccc3c2)C1 (stereo not drawn) [Compound 464]

# Same assay, conditions: Mycolicibacterium smegmatis, ATCC607, 48 h, 90% inhibitory concentration for bacterial growth, Alamar Blue fluorescence, read-out: IC90 MSM 607
row,Compound,IC90
1,C=CCC1CNCCC1(O)C(c1ccc(Cl)cc1)c1cc2cc(Br)ccc2nc1OC (stereo not drawn) [Compound 392],3.17 µg/mL
2,COc1nc2ccc(Cl)cc2cc1C(c1ccc(Cl)cc1)C1(O)CCNC(CO)C1 (stereo not drawn) [Compound 435],3.99 µg/mL
3,COc1nc2ccc(Cl)cc2cc1C(c1ccc(Cl)cc1)C1(O)CCNC(Cc2cccnc2)C1 (stereo not drawn) [Compound 467],2.55 µg/mL

# Continued, values first:
row,IC90,Compound
1,> 12.3 µg/mL,COc1nc2ccc(S(C)(=O)=O)cc2cc1C(c1ccc(Cl)cc1)C1(O)CCNCC1(C)C (stereo not drawn) [Compound 397]
2,> 13.9 µg/mL,COc1nc2ccc(F)cc2cc1C(c1ccc(S(C)(=O)=O)cc1)C1(O)CCNC(c2ccc(F)cc2C)C1 (stereo not drawn) [Compound 417]
3,> 11.1 µg/mL,COc1nc2ccc(Br)cc2cc1C(c1ccccc1)C1(O)CCNCC1C (stereo not drawn) [Compound 425]

# Tested on: not given
# Assay: not given
# Details: not given
row,Compound,melting point
1,C=CCC1CNCCC1(O)C(c1ccc(Cl)cc1)c1cc2cc(Br)ccc2nc1OC (stereo not drawn) [Compound 392],162 to 164 °C
2,COc1nc2ccc(F)cc2cc1C(c1ccc(SC)cc1)C1(O)CCNC(c2ccc(F)cc2C)C1 (stereo not drawn) [Compound 406],206 °C
3,COc1nc2ccc(Cl)cc2cc1C(c1ccc(Cl)cc1)C1(O)CCNC(CO)C1 (stereo not drawn) [Compound 435],140 °C
4,COc1nc2ccc(Cl)cc2cc1C(c1ccc(Cl)cc1)C1(O)CCNCC1F (stereo not drawn) [Compound 450],200 °C
5,COc1nc2ccc(Cl)cc2cc1C(c1ccc(Cl)cc1)C1(O)CCNCC1F (stereo not drawn) [Compound 451],110 °C
6,COc1nc2ccc(Cl)cc2cc1C(c1ccc(Cl)cc1)C1(O)CCNCC1F (stereo not drawn) [Compound 452],114 °C
7,COc1nc2ccc(Cl)cc2cc1C(c1ccc(Cl)cc1)C1(O)CCNCC1F (stereo not drawn) [Compound 453],210 °C
8,COc1nc2ccc(Cl)cc2cc1C(c1ccc(Cl)cc1)C1(O)CCNCC1F (stereo not drawn) [Compound 455],118 °C
9,COc1nc2ccc(Cl)cc2cc1C(c1ccc(Cl)cc1)C1(O)CCNCC1F (stereo not drawn) [Compound 456],115 °C
10,COc1nc2ccc(S(C)(=O)=O)cc2cc1C(c1ccc(Cl)cc1)C1(O)CCNC(c2ccc3ccccc3c2)C1 (stereo not drawn) [Compound 459],211 °C
11,COc1nc2ccc(S(C)(=O)=O)cc2cc1C(c1ccc(Cl)cc1)C1(O)CCNC(c2ccc3ccccc3c2)C1 (stereo not drawn) [Compound 460],197 °C
12,COc1nc2ccc(S(C)(=O)=O)cc2cc1C(c1ccc(Cl)cc1)C1(O)CCNC(c2ccc3ccccc3c2)C1 (stereo not drawn) [Compound 462],192 °C
13,COc1nc2ccc(S(C)(=O)=O)cc2cc1C(c1ccc(Cl)cc1)C1(O)CCNC(c2ccc3ccccc3c2)C1 (stereo not drawn) [Compound 465],168 °C
14,COc1nc2ccc(S(C)(=O)=O)cc2cc1C(c1ccc(Cl)cc1)C1(O)CCNC(c2ccc3ccccc3c2)C1 (stereo not drawn) [Compound 466],188 °C
15,COc1nc2ccc(Cl)cc2cc1C(c1ccc(Cl)cc1)C1(O)CCNC(Cc2cccnc2)C1 (stereo not drawn) [Compound 467],148 °C

# Results, then the molecule that gave them:
row,melting point,Compound
1,180 °C,COc1nc2ccc(S(C)(=O)=O)cc2cc1C(c1ccc(Cl)cc1)C1(O)CCNCC1(C)C (stereo not drawn) [Compound 397]
2,150 °C,COc1nc2ccc(F)cc2cc1C(c1ccc(S(C)(=O)=O)cc1)C1(O)CCNC(c2ccc(F)cc2C)C1 (stereo not drawn) [Compound 417]
3,125 °C,COc1nc2ccc(Br)cc2cc1C(c1ccccc1)C1(O)CCNCC1C (stereo not drawn) [Compound 425]
4,186 °C,COc1nc2ccc(Cl)cc2cc1C(c1ccc(Cl)cc1)C1(O)CCNCC1F (stereo not drawn) [Compound 454]
5,208 °C,COc1nc2ccc(S(C)(=O)=O)cc2cc1C(c1ccc(Cl)cc1)C1(O)CCNC(c2ccc3ccccc3c2)C1 (stereo not drawn) [Compound 461]
6,160 °C,COc1nc2ccc(S(C)(=O)=O)cc2cc1C(c1ccc(Cl)cc1)C1(O)CCNC(c2ccc3ccccc3c2)C1 (stereo not drawn) [Compound 463]
7,154 °C,COc1nc2ccc(S(C)(=O)=O)cc2cc1C(c1ccc(Cl)cc1)C1(O)CCNC(c2ccc3ccccc3c2)C1 (stereo not drawn) [Compound 464]
